Test results reported in paper PMC8606745 (Frontiers in Microbiology, 2021).
Like-named read-outs stand apart in the source and are kept apart here. Square brackets hold non-standard residues; d marks the D form. Peptide text beside a SMILES is read from it. * marks the point of attachment. Lauroyl = CCCCCCCCCCCC(=O)*; Butyryl = CCCC(=O)*

What was measured:
[1] = test system: horse erythrocytes
[2] = test system: X. fastidiosa subsp. fastidiosa IVIA 5387.2; format: cell-based, Xylella fastidiosa
[3] = test system: X. fastidiosa subsp. fastidiosa IVIA 5387.2; details: for log reduction of cell viability: 3 h, 50 μM

Row | Molecule | Bactericidal activity: Reduction in viability (Log N0/N) [3] [Log N0/N] | Biofilm formation Level (antibiofilm activity) [2] | Biofilm formation Ratio (treatment/NTC) [2] | Planktonic cells Ratio (treatment/NTC) [2] | other results
1 | CC[C@H](C)[C@H](NC(=O)[C@H](C)NC(=O)[C@H](Cc1c[nH]cn1)NC(=O)[C@@H]1CCCN1C(=O)[C@@H](NC(=O)[C@H](CC(C)C)NC(=O)[C@H](CO)NC(=O)[C@H](Cc1ccccc1)NC(=O)[C@H](CC(C)C)NC(=O)[C@@H](N)Cc1ccccc1)[C@@H](C)CC)C(=O)NCC(=O)NCC(=O)N[C@@H](CC(C)C)C(=O)N[C@H](C(=O)N[C@@H](CO)C(=O)N[C@@H](C)C(=O)N[C@@H](Cc1ccccc1)C(=O)N[C@@H](CCCCN)C(N)=O)[C@@H](C)CC [AamAP1] | 1.38 ± 0.12 |  |  |  | Hemolysis ([1]; 150 µM): 100.00 ± 1.3%; Hemolysis ([1]; 250 µM): 100.0 ± 4.1%; Hemolysis ([1]; 375 µM): 100.0 ± 4.4%; Effect on X. fastidiosa growth in the antibiofilm test [2]: affected X. fastidiosa’s growth
2 | CC[C@H](C)[C@H](NC(=O)[C@H](C)NC(=O)[C@H](CCCNC(=N)N)NC(=O)[C@@H]1CCCN1C(=O)[C@@H](NC(=O)[C@H](CC(C)C)NC(=O)[C@H](CO)NC(=O)[C@H](Cc1ccccc1)NC(=O)[C@H](CC(C)C)NC(=O)[C@@H](N)Cc1ccccc1)[C@@H](C)CC)C(=O)NCC(=O)NCC(=O)N[C@@H](CC(C)C)C(=O)N[C@H](C(=O)N[C@@H](CO)C(=O)N[C@@H](C)C(=O)N[C@@H](Cc1ccccc1)C(=O)N[C@@H](CCCCN)C(N)=O)[C@@H](C)CC [AamAP-R] | 0.78 ± 0.01 |  |  |  | Effect on X. fastidiosa growth in the antibiofilm test [2]: affected X. fastidiosa’s growth
3 | CC[C@H](C)[C@H](NC(=O)[C@H](C)NC(=O)[C@H](CCCCN)NC(=O)[C@@H]1CCCN1C(=O)[C@@H](NC(=O)[C@H](CC(C)C)NC(=O)[C@H](CO)NC(=O)[C@H](Cc1ccccc1)NC(=O)[C@H](CC(C)C)NC(=O)[C@@H](N)Cc1ccccc1)[C@@H](C)CC)C(=O)NCC(=O)NCC(=O)N[C@@H](CC(C)C)C(=O)N[C@H](C(=O)N[C@@H](CO)C(=O)N[C@@H](C)C(=O)N[C@@H](Cc1ccccc1)C(=O)N[C@@H](CCCCN)C(N)=O)[C@@H](C)CC [AamAP-S1] | 2.45 ± 0.09 |  |  |  | Effect on X. fastidiosa growth in the antibiofilm test [2]: affected X. fastidiosa’s growth; log reduction of cell viability [3]: 2-3 log
4 | CCCC(=O)N[C@H](C(=O)N[C@@H](CC(C)C)C(=O)N1CCC[C@H]1C(=O)N[C@H](Cc1ccccc1)C(=O)N[C@@H](CCCCN)C(=O)N[C@H](Cc1ccccc1)C(=O)N1CCC[C@H]1C(=O)N[C@H](Cc1ccccc1)C(=O)N[C@H](Cc1ccccc1)C(=O)N1CCC[C@H]1C(=O)N[C@H](Cc1ccccc1)C(=O)N[C@@H](CCCNC(=N)N)C(=O)N[C@@H](CCCNC(=N)N)C(N)=O)[C@@H](C)CC [BP526] (Butyryl-ILP[dF]K[dF]P[dF][dF]P[dF]RR-NH2) |  |  |  |  | Hemolysis ([1]; 150 µM): 8.3 ± 0.7%; Hemolysis ([1]; 250 µM): 20.4 ± 0.7%; Hemolysis ([1]; 375 µM): 46.8 ± 3.3%; Biofilm formation Level (antibiofilm activity) ([2]; 50 µM): High (key: High: high antibiofilm activity (ratio of biofilm formation from 0.01 to 0.2); Moderate: moderate activity (ratio from 0.29 to 0.47); Low: low activity (ratio from 0.72 to 0.77)); Biofilm formation Ratio (treatment/NTC) ([2]; 50 µM): 0.17 ± 0.02; Planktonic cells Ratio (treatment/NTC) ([2]; 50 µM): 2.17 ± 0.02; Bactericidal activity: Reduction in viability (Log N0/N) ([3]; 50 µM): 0.56 ± 0.03 Log N0/N
5 | CCCCCCCCCCCC(=O)N[C@H](C(=O)N[C@@H](CC(C)C)C(=O)N1CCC[C@H]1C(=O)N[C@H](Cc1ccccc1)C(=O)N[C@@H](CCCCN)C(=O)N[C@H](Cc1ccccc1)C(=O)N1CCC[C@H]1C(=O)N[C@H](Cc1ccccc1)C(=O)N[C@H](Cc1ccccc1)C(=O)N1CCC[C@H]1C(=O)N[C@H](Cc1ccccc1)C(=O)N[C@@H](CCCNC(=N)N)C(=O)N[C@@H](CCCNC(=N)N)C(N)=O)[C@@H](C)CC [BP528] (Lauroyl-ILP[dF]K[dF]P[dF][dF]P[dF]RR-NH2) |  |  |  |  | Hemolysis ([1]; 150 µM): 92.1 ± 5.7%; Hemolysis ([1]; 250 µM): 96.6 ± 3.1%; Hemolysis ([1]; 375 µM): 99.1 ± 8.0%; Biofilm formation Level (antibiofilm activity) ([2]; 50 µM): High (key: High: high antibiofilm activity (ratio of biofilm formation from 0.01 to 0.2); Moderate: moderate activity (ratio from 0.29 to 0.47); Low: low activity (ratio from 0.72 to 0.77)); Biofilm formation Ratio (treatment/NTC) ([2]; 50 µM): 0.03 ± 0.01; Planktonic cells Ratio (treatment/NTC) ([2]; 50 µM): 0.99 ± 0.06; Bactericidal activity: Reduction in viability (Log N0/N) ([3]; 50 µM): 0.61 ± 0.12 Log N0/N
6 | CC[C@H](C)[C@H](NC(=O)CN)C(=O)NCC(=O)N[C@@H](CCCCN)C(=O)N[C@@H](Cc1ccccc1)C(=O)N[C@@H](CC(C)C)C(=O)N[C@@H](Cc1c[nH]cn1)C(=O)N[C@@H](CO)C(=O)N[C@@H](C)C(=O)N[C@@H](CCCCN)C(N)=O [Magainin 2(1-10)] (H-GIGKFLHSAK-NH2) | 0.00 ± 0.06 | Low (key: High: high antibiofilm activity (ratio of biofilm formation from 0.01 to 0.2); Moderate: moderate activity (ratio from 0.29 to 0.47); Low: low activity (ratio from 0.72 to 0.77)) | 0.77 ± 0.02 | 1.67 ± 0.07 | 
7 | CC[C@H](C)[C@H](NC(=O)[C@H](CCCNC(=N)N)NC(=O)[C@H](Cc1ccccc1)NC(=O)[C@H](CCC(N)=O)NC(=O)[C@@H](N)CCCCN)C(=O)N[C@@H](CCCNC(=N)N)C(=O)N[C@H](C(=O)N[C@@H](CCCNC(=N)N)C(=O)N[C@H](C(N)=O)C(C)C)C(C)C [Peptide 1029] (H-KQFRIRVRV-NH2) | 1.18 ± 0.08 | High (key: High: high antibiofilm activity (ratio of biofilm formation from 0.01 to 0.2); Moderate: moderate activity (ratio from 0.29 to 0.47); Low: low activity (ratio from 0.72 to 0.77)) | 0.20 ± 0.01 | 1.71 ± 0.04 | 
8 | CC[C@H](C)[C@H](NC(=O)[C@H](CCCNC(=N)N)NC(=O)[C@H](Cc1ccccc1)NC(=O)[C@H](CCC(N)=O)NC(=O)[C@@H](N)C(C)C)C(=O)N[C@@H](CCCNC(=N)N)C(=O)N[C@H](C(=O)N[C@@H](CCCNC(=N)N)C(=O)N[C@H](C(=O)N[C@H](C(=O)N[C@H](C(=O)N[C@@H](CCCNC(=N)N)C(=O)N[C@@H](CCCCN)C(N)=O)[C@@H](C)CC)C(C)C)[C@@H](C)CC)C(C)C [Peptide 1036] (H-VQFRIRVRIVIRK-NH2) |  | High (key: High: high antibiofilm activity (ratio of biofilm formation from 0.01 to 0.2); Moderate: moderate activity (ratio from 0.29 to 0.47); Low: low activity (ratio from 0.72 to 0.77)) |  | 2.16 ± 0.06 | log reduction [3]: 3.48 log
9 | CC[C@@H](C)[C@@H](NC(=O)[C@H](N)CCCNC(=N)N)C(=O)N[C@@H](C(=O)N[C@H](Cc1c[nH]c2ccccc12)C(=O)N[C@@H](C(=O)N[C@H](CCCNC(=N)N)C(=O)N[C@@H](C(=O)N[C@H](CCCNC(=N)N)C(=O)N[C@H](CCCNC(=N)N)C(=O)N[C@H](Cc1c[nH]c2ccccc12)C(=O)N[C@H](Cc1ccccc1)C(=O)N[C@@H](C(N)=O)C(C)C)[C@H](C)CC)C(C)C)C(C)C [RIJK2] (H-[dR][dI][dV][dW][dV][dR][dI][dR][dR][dW][dF][dV]-NH2) |  | High (key: High: high antibiofilm activity (ratio of biofilm formation from 0.01 to 0.2); Moderate: moderate activity (ratio from 0.29 to 0.47); Low: low activity (ratio from 0.72 to 0.77)) |  | 1.43 ± 0.09 | 
10 | CC[C@H](C)[C@H](NC(=O)[C@H](Cc1c[nH]c2ccccc12)NC(=O)[C@H](CCCCN)NC(=O)[C@H](CCCCN)NC(=O)[C@@H](NC(=O)[C@H](CCCNC(=N)N)NC(=O)[C@H](CCCNC(=N)N)NC(=O)[C@@H](NC(=O)[C@@H](N)Cc1c[nH]c2ccccc12)[C@@H](C)CC)[C@@H](C)CC)C(=O)N[C@@H](CCCNC(=N)N)C(=O)N[C@@H](CCCNC(=N)N)C(=O)N[C@H](C(=O)N[C@@H](Cc1c[nH]cn1)C(=O)N[C@@H](CCCCN)C(N)=O)C(C)C [RR2-NH2] (H-WIRRIKKWIRRVHK-NH2) | 1.43 ± 0.12 | High (key: High: high antibiofilm activity (ratio of biofilm formation from 0.01 to 0.2); Moderate: moderate activity (ratio from 0.29 to 0.47); Low: low activity (ratio from 0.72 to 0.77)) | 0.13 ± 0.01 | 2.13 ± 0.07 | 
11 | CC[C@H](C)[C@H](NC(=O)[C@H](CCCNC(=N)N)NC(=O)[C@H](CCCNC(=N)N)NC(=O)[C@H](CC(C)C)NC(=O)[C@@H](N)Cc1c[nH]c2ccccc12)C(=O)N[C@@H](CCCCN)C(=O)N[C@@H](C)C(=O)N[C@@H](Cc1c[nH]c2ccccc12)C(=O)N[C@@H](CC(C)C)C(=O)N[C@@H](CCCNC(=N)N)C(=O)N[C@@H](CCCNC(=N)N)C(=O)N[C@@H](CCCCN)C(=O)N[C@@H](CCCNC(=N)N)C(=O)N[C@@H](CCCCN)C(N)=O [RR3-NH2] (H-WLRRIKAWLRRKRK-NH2) | 0.89 ± 0.09 | Moderate (key: High: high antibiofilm activity (ratio of biofilm formation from 0.01 to 0.2); Moderate: moderate activity (ratio from 0.29 to 0.47); Low: low activity (ratio from 0.72 to 0.77)) | 0.29 ± 0.01 | 1.66 ± 0.09 | 
12 | CC[C@H](C)[C@H](NC(=O)[C@H](CCCNC(=N)N)NC(=O)[C@H](CCCNC(=N)N)NC(=O)[C@H](CC(C)C)NC(=O)[C@H](Cc1c[nH]c2ccccc12)NC(=O)[C@H](C)NC(=O)[C@H](CCCCN)NC(=O)[C@@H](NC(=O)[C@H](CCCNC(=N)N)NC(=O)[C@H](CCCNC(=N)N)NC(=O)[C@H](CC(C)C)NC(=O)[C@@H](N)Cc1c[nH]c2ccccc12)[C@@H](C)CC)C(=O)N[C@@H](CCCCN)C(=O)N[C@@H](C)C(N)=O [RR4-NH2] | 2.08 ± 0.09 | High (key: High: high antibiofilm activity (ratio of biofilm formation from 0.01 to 0.2); Moderate: moderate activity (ratio from 0.29 to 0.47); Low: low activity (ratio from 0.72 to 0.77)) | 0.20 ± 0.01 | 1.84 ± 0.05 | log reduction of cell viability [3]: 2-3 log
13 | Cecropin B |  |  |  |  | Bactericidal activity: Reduction in viability (Log N0/N) ([3]; 3.1 µM): 2.13 ± 0.10 Log N0/N; Bactericidal activity: Reduction in viability (Log N0/N) ([3]; 12.5 μM): 3.19 ± 0.06 Log N0/N; log reduction ([3]; 12.5 μM): 3.19 log; Bactericidal activity: Reduction in viability (Log N0/N) ([3]; 50 µM): 4.00 ± 0.10 Log N0/N
